Test results as given in ChEMBL document CHEMBL5465560, “Selectivity Literature for EUbOPEN Chemogenomic Library” (2024).
Blank lines part the entries; values can stand above or below the compound they belong to.

Columns and labels:
[1] = biological target: cAMP-dependent protein kinase catalytic subunit alpha (Homo sapiens, UniProt P17612); test: Selectivity interaction (Kinase panel (literature)) EUB0001199aCl PRKACA; details: at 1 µM
[2] = biological target: Serine/threonine-protein kinase 25 (Homo sapiens) (UniProt O00506); test: Selectivity interaction (SelectScreen profiling (Invitrogen)) EUB0000607a STK25; details: at 2 µM
Sequence of Serine/threonine-protein kinase 25 (Homo sapiens) (O00506 whole entry, looked up): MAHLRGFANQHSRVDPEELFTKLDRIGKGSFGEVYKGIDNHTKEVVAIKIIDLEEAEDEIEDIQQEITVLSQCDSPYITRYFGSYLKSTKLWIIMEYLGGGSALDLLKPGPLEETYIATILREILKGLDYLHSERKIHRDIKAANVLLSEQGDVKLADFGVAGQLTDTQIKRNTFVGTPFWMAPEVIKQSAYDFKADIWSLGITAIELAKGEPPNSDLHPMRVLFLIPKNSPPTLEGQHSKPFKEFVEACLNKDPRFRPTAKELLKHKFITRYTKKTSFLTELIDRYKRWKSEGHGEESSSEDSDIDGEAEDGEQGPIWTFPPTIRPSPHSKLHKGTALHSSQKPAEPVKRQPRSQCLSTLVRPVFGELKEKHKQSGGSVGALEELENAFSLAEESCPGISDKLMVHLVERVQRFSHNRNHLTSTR

[3] = biological target: T1, Muscle, skeletal receptor tyrosine-protein kinase (Homo sapiens) (UniProt O15146); details: at 10 µM
T1 sequence (whole entry): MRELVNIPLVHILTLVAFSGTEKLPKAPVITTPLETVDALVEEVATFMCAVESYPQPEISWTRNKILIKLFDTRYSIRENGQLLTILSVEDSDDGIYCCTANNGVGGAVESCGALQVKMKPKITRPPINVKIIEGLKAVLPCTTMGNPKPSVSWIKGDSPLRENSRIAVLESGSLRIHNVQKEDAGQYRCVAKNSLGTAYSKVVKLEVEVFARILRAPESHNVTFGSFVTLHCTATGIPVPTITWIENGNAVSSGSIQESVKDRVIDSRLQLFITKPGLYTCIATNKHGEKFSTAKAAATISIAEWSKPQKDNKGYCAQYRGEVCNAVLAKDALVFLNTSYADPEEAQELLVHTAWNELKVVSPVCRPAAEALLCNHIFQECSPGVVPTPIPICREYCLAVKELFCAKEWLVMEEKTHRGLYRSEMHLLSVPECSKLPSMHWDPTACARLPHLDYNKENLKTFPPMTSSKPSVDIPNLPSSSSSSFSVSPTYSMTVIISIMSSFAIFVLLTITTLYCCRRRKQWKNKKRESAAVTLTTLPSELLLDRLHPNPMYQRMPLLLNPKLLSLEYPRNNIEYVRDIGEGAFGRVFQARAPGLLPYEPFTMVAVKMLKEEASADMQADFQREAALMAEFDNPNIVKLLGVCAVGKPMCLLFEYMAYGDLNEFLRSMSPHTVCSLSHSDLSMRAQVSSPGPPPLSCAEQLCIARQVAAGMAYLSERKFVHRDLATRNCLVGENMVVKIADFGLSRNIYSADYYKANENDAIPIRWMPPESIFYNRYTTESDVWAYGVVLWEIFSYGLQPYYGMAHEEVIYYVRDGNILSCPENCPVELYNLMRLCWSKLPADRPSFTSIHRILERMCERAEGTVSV

[4] = biological target: T2, Non-receptor tyrosine-protein kinase TNK1 (Homo sapiens) (UniProt Q13470); details: at 10 µM
T2 sequence (whole entry): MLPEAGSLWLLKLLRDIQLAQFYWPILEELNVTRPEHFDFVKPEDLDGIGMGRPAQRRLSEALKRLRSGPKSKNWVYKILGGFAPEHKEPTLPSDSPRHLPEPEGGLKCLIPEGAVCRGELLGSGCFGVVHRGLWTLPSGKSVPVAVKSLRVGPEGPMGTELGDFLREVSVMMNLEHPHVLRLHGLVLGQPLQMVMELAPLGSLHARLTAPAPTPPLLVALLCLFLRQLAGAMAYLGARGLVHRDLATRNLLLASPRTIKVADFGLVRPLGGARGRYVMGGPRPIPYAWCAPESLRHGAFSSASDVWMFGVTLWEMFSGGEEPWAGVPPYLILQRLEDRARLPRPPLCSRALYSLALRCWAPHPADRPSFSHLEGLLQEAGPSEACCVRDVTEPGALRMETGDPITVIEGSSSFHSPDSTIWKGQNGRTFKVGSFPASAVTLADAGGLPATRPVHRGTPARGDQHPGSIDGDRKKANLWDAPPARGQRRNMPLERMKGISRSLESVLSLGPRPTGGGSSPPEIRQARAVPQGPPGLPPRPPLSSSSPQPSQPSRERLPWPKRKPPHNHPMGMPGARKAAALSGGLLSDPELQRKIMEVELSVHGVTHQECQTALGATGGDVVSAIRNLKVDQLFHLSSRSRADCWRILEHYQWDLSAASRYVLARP

[5] = biological target: T3, Tyrosine-protein kinase Mer (Homo sapiens) (UniProt Q12866); test: Selectivity interaction (KinomeScan (DiscoverX)) EUB0000695a MERTK; details: at 100 nM
T3 sequence (whole entry): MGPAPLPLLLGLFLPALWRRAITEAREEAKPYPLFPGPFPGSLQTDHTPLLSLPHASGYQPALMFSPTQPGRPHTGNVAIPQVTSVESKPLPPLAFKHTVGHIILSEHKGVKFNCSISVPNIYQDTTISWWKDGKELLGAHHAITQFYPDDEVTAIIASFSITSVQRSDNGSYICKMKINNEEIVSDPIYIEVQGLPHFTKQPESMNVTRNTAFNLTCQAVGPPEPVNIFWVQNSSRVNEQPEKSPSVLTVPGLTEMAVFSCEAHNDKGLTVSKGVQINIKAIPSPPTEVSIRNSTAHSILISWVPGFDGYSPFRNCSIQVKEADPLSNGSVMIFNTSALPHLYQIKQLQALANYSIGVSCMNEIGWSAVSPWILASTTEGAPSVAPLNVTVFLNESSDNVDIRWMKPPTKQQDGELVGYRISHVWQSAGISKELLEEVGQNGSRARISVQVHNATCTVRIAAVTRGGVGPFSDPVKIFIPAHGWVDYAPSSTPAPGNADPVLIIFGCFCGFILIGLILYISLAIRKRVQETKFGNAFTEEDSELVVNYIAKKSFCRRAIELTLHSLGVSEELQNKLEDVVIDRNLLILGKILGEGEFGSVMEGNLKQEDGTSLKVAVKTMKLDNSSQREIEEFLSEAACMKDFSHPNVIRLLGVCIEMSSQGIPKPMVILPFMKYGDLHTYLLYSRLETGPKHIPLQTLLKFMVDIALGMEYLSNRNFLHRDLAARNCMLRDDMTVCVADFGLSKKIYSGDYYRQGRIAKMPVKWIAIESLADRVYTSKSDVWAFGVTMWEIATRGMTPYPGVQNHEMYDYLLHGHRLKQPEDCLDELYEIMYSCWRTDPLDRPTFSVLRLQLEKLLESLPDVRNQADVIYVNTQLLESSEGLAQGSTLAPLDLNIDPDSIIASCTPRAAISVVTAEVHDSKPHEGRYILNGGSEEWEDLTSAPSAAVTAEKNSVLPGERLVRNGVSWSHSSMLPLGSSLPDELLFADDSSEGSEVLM

% of inhibition [1]: 2%
Compound: CN1Cc2nccc(-c3cn(C)nc3-c3ccc(F)cc3)c2C1=O

Compound: CNC(=O)Nc1ccc(-c2nc(N3CC4CCC(C3)O4)c3cnn(C4CCC5(CC4)OCCO5)c3n2)cc1
% of inhibition [2]: 2%

Compound: Cc1cc([C@@H](C)Nc2ccccc2C(=O)O)c2nc(N3CCOCC3)cc(=O)n2c1 [AZD-6482]
% of control [3]: 100%
% of control [4]: 100%

Compound: Cc1cc(F)c(C(=O)Nc2cccc(-c3nncn3C(C)C)n2)cc1-n1cnc(C2CC2)c1
% of control [5]: 99%
